Test results reported in US6914045B2, “Glycopeptide antibiotics” (Wyeth Holdings Corporation, priority 2001, dated 2005).
≈ marks a conversion by molar mass, not a printed value.

Experiments:
Assay in all cases: in vitro antibacterial evaluation, MIC by broth dilution
Assay type in all cases: cell-based
[1] = test system: Enterococcus sp.; settings: broth dilution, 18 hours at 35° C.
Method in brief: (§1)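 MIC = lowest antibiotic concentration preventing visible growth; inoculum 5×10^5 CFU/mL; drug range 64-0.06 μg/mL; Muller-Hinton II […]; NCCLS M7-A2 guidance.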

[2] = test system: Streptococcus sp.; settings: broth dilution, 18 hours at 35° C.
Method in brief: as §1

[3] = test system: Escherichia coli
Method in brief: as §1

[4] = test system: Staphylococcus sp.; settings: broth dilution, 18 hours at 35° C.; for MIC Staphylococcus aureus (GC 1131): strain GC 1131
Method in brief: as §1

MIC Enterococcus avium (GC 4558) ([1]; Enterococcus avium (GC 4558)): 8 µg/mL (≈ 5.49 µM)
MIC Enterococcus faecalis (ATCC 29212) ([1]; Enterococcus faecalis (ATCC 29212)): 8 µg/mL (≈ 5.49 µM)
MIC Enterococcus faecalis (GC 2242) ([1]; Enterococcus faecalis (GC 2242)): 4 µg/mL (≈ 2.74 µM)
MIC Enterococcus faecalis (GC 2691) ([1]; Enterococcus faecalis (GC 2691)): 8 µg/mL (≈ 5.49 µM)
MIC Enterococcus faecalis (GC 3059) ([1]; Enterococcus faecalis (GC 3059)): 8 µg/mL (≈ 5.49 µM)
MIC Enterococcus faecalis (GC 4552) ([1]; Enterococcus faecalis (GC 4552)): 8 µg/mL (≈ 5.49 µM)
MIC Enterococcus faecalis (GC 4553) ([1]; Enterococcus faecalis (GC 4553)): 8 µg/mL (≈ 5.49 µM)
MIC Enterococcus faecalis (GC 4554) ([1]; Enterococcus faecalis (GC 4554)): 8 µg/mL (≈ 5.49 µM)
MIC Enterococcus faecalis (GC 6189) ([1]; Enterococcus faecalis (GC 6189)): 4 µg/mL (≈ 2.74 µM)
MIC Enterococcus faecium (GC 2243) ([1]; Enterococcus faecium (GC 2243)): 4 µg/mL (≈ 2.74 µM)
MIC Enterococcus faecium (GC 4556) ([1]; Enterococcus faecium (GC 4556)): 4 µg/mL (≈ 2.74 µM)
MIC Enterococcus faecium (GC 4557) ([1]; Enterococcus faecium (GC 4557)): 2 µg/mL (≈ 1.37 µM)
MIC Enterococcus faecalis (ATCC 29212) ([1]; strain ATCC 29212): 8 µg/mL (≈ 5.49 µM)
MIC Enterococcus faecalis (GC 2242) ([1]; strain GC 2242): 4 µg/mL (≈ 2.74 µM)
MIC Enterococcus faecium (GC 2243) ([1]; strain GC 2243): 4 µg/mL (≈ 2.74 µM)
MIC Enterococcus faecalis (GC 2691) ([1]; strain GC 2691): 8 µg/mL (≈ 5.49 µM)
MIC Enterococcus faecalis (GC 3059) ([1]; strain GC 3059): 8 µg/mL (≈ 5.49 µM)
MIC Enterococcus faecalis (GC 4552) ([1]; strain GC 4552): 8 µg/mL (≈ 5.49 µM)
MIC Enterococcus faecalis (GC 4553) ([1]; strain GC 4553): 8 µg/mL (≈ 5.49 µM)
MIC Enterococcus faecalis (GC 4554) ([1]; strain GC 4554): 8 µg/mL (≈ 5.49 µM)
MIC Enterococcus faecium (GC 4556) ([1]; strain GC 4556): 4 µg/mL (≈ 2.74 µM)
MIC Enterococcus faecium (GC 4557) ([1]; strain GC 4557): 2 µg/mL (≈ 1.37 µM)
MIC Enterococcus avium (GC 4558) ([1]; strain GC 4558): 8 µg/mL (≈ 5.49 µM)
MIC Enterococcus faecalis (GC 6189) ([1]; strain GC 6189): 4 µg/mL (≈ 2.74 µM)
MIC Streptococcus agalactiae (GC 4564) ([2]; Streptococcus agalactiae (GC 4564)): 0.5 µg/mL (≈ 0.343 µM)
MIC Streptococcus pneumoniae (ATCC 6301) ([2]; Streptococcus pneumoniae (ATCC 6301)): <0.06 µg/mL
MIC Streptococcus pneumoniae (GC 1894) ([2]; Streptococcus pneumoniae (GC 1894)): <0.06 µg/mL
MIC Streptococcus pneumoniae (GC 4565) ([2]; Streptococcus pneumoniae (GC 4565)): <0.06 µg/mL
MIC Streptococcus pyogenes (GC 4563) ([2]; Streptococcus pyogenes (GC 4563)): 0.25 µg/mL (≈ 0.171 µM)
MIC Streptococcus pneumoniae (ATCC 6301) ([2]; strain ATCC 6301): <0.06 µg/mL
MIC Streptococcus pneumoniae (GC 1894) ([2]; strain GC 1894): <0.06 µg/mL
MIC Streptococcus pyogenes (GC 4563) ([2]; strain GC 4563): 0.25 µg/mL (≈ 0.171 µM)
MIC Streptococcus agalactiae (GC 4564) ([2]; strain GC 4564): 0.5 µg/mL (≈ 0.343 µM)
MIC Streptococcus pneumoniae (GC 4565) ([2]; strain GC 4565): <0.06 µg/mL
MIC Escherichia coli (ATCC 25922) ([3]; strain ATCC 25922, 18 hours at 35° C.): 64 µg/mL (≈ 43.9 µM)
MIC Escherichia coli (GC 4559) ([3]; strain GC 4559, 18 hours at 35° C.): 64 µg/mL (≈ 43.9 µM)
MIC Staphylococcus aureus (GC 1131) ([4]; inoculum 5×10^5 CFU/mL): 2 µg/mL (≈ 1.37 µM)
MIC Staphylococcus aureus (ATCC 29213) ([4]; strain ATCC 29213): 2 µg/mL (≈ 1.37 µM)
MIC Staphylococcus aureus (GC 1131) [4]: 2 µg/mL (≈ 1.37 µM)
MIC Staphylococcus aureus (GC 3051) ([4]; strain GC 3051): 2 µg/mL (≈ 1.37 µM)
MIC Staphylococcus aureus (GC 3053) ([4]; strain GC 3053): 4 µg/mL (≈ 2.74 µM)
MIC Staphylococcus aureus (GC 4541) ([4]; strain GC 4541): 2 µg/mL (≈ 1.37 µM)
MIC Staphylococcus aureus (GC 4542) ([4]; strain GC 4542): 2 µg/mL (≈ 1.37 µM)
MIC Staphylococcus aureus-SMITH (GC 4543) ([4]; strain GC 4543): 1 µg/mL (≈ 0.686 µM)
MIC Staphylococcus aureus (GC 4544) ([4]; strain GC 4544): 2 µg/mL (≈ 1.37 µM)
MIC Staphylococcus aureus (GC 4545) ([4]; strain GC 4545): 2 µg/mL (≈ 1.37 µM)
MIC Coagulase Negative Staphylococcus (GC 4547) ([4]; strain GC 4547): 1 µg/mL (≈ 0.686 µM)
MIC Coagulase Negative Staphylococcus (GC 4548) ([4]; strain GC 4548): 0.5 µg/mL (≈ 0.343 µM)
MIC Coagulase Negative Staphylococcus (GC 4549) ([4]; strain GC 4549): 0.5 µg/mL (≈ 0.343 µM)
MIC Coagulase Negative Staphylococcus (GC 4551) ([4]; strain GC 4551): 2 µg/mL (≈ 1.37 µM)
MIC Coagulase Negative Staphylococcus (GC 6257) ([4]; strain GC 6257): 0.5 µg/mL (≈ 0.343 µM)
MIC Staphylococcus aureus-SMITH (GC 4543) ([4]; strain SMITH GC 4543): 1 µg/mL (≈ 0.686 µM)
Structure (SMILES): COc1cc(C2OCC3OC(OC4C(CO)OC(Oc5ccc(CC6NC(=O)C(C(C)c7ccccc7)NC(=O)CNC(=O)C(CO)NC(=O)C(C(O)C7CNC(=N)N7C7OC(CO)C(O)C(O)C7O)NC(=O)C(C(O)C7CNC(=N)N7)NC6=O)cc5)C(O)C4O)C(O)C(O)C3O2)ccc1[N+](=O)[O-] (centres unmarked) [Example 153]
MIC Staphylococcus haemolyticus (GC 4546) ([4]; strain GC 4546): 1 µg/mL (≈ 0.686 µM)
